Each structure is given as a SMILES string.

The melting point is the temperature, or range, at which the solid turns liquid. Molecule `CCCN(C)c1cc2c(cc1C#N)NC(=O)CC(c1cccc(-n3nncc3CO)c1)=N2` [Example 105, 2-[3-(5-Hydroxymethyl-[1,2,3]triazol-1-yl)-phenyl]-8-(methyl-propyl-amino)-4-oxo-4,5-dihydro-3H-benzo[b][1,4]diazepine-7-carbonitrile] showed a melting point of 221 °C.

The molecule `CCCN(C)c1cc2c(cc1C#N)NC(=O)CC(c1cccc(-c3cc(C)no3)c1)=N2` [Example 106, 2-[3-(3-Methyl-isoxazol-5-yl)-phenyl]-8-(methyl-propyl-amino)-4-oxo-4,5-dihydro-3H-benzo[b][1,4]diazepine-7-carbonitrile] yielded a melting point of 133 °C.

The molecule `Cc1cc(-c2cccc(C3=Nc4cc(N(C)C(C)C)c(C#N)cc4NC(=O)C3)c2)on1` [Example 108, 8-(Isopropyl-methyl-amino)-2-[3-(3-methyl-isoxazol-5-yl)-phenyl]-4-oxo-4,5-dihydro-3H-benzo[b][1,4]diazepine-7-carbonitrile] displayed a melting point of 197 °C.

As to `CC(C)N(C)c1cc2c(cc1C#N)NC(=O)CC(c1cccc(-n3nncc3CO)c1)=N2` [Example 109, 2-[3-(5-Hydroxymethyl-[1,2,3]triazol-1-yl)-phenyl]-8-(isopropyl-methyl-amino)-4-oxo-4,5-dihydro-3H-benzo[b][1,4]diazepine-7-carbonitrile], the melting point stood at 206 °C.

`Cc1cc(-c2cccc(C3=Nc4cc(N(C)CC(C)C)c(C#N)cc4NC(=O)C3)c2)on1` [Example 110, 8-(Isobutyl-methyl-amino)-2-[3-(3-methyl-isoxazol-5-yl)-phenyl]-4-oxo-4,5-dihydro-3H-benzo[b][1,4]diazepine-7-carbonitrile]: the melting point amounted to 170 °C.

The molecule `Cc1cc(-c2cccc(C3=Nc4cc(N5CCCCC5)c(C#N)cc4NC(=O)C3)c2)on1` [Example 112, 2-[3-(3-Methyl-isoxazol-5-yl)-phenyl]-4-oxo-8-piperidin-1-yl-4,5-dihydro-3H-benzo[b][1,4]diazepine-7-carbonitrile] returned a melting point of 246 °C.

Take `CCCN(C)c1cc2c(cc1C(F)(F)F)NC(=O)CC(c1cccc(-n3nncc3CO)c1)=N2` [Example 115, 4-[3-(5-Hydroxymethyl-[1,2,3]triazol-1-yl)-phenyl]-7-(methyl-propyl-amino)-8-trifluoromethyl-1,3-dihydro-benzo[b][1,4]diazepin-2-one]: the melting point is 230 °C.

Take `CCCN(C)c1cc2c(cc1C(F)(F)F)NC(=O)CC(c1cccc(-c3cc(C)no3)c1)=N2` [Example 116, 4-[3-(3-Methyl-isoxazol-5-yl)-phenyl]-7-(methyl-propyl-amino)-8-trifluoromethyl-1,3-dihydro-benzo[b][1,4]diazepin-2-one]: the melting point stood at 193 °C.

Regarding `Cc1cc(-c2cccc(C3=Nc4cc(N(C)CC(C)C)c(C(F)(F)F)cc4NC(=O)C3)c2)on1` [Example 118, 7-(Isobutyl-methyl-amino)-4-[3-(3-methyl-isoxazol-5-yl)-phenyl]-8-trifluoromethyl-1,3-dihydro-benzo[b][1,4]diazepin-2-one], the melting point is 195 °C.

Regarding `CC(C)N(C)c1cc2c(cc1C(F)(F)F)NC(=O)CC(c1cccc(-n3nncc3CO)c1)=N2` [Example 119, 4-[3-(5-Hydroxymethyl-[1,2,3]triazol-1-yl)-phenyl]-7-(isopropyl-methyl-amino)-8-trifluoromethyl-1,3-dihydro-benzo[b][1,4]diazepin-2-one], the melting point came to 234 °C.

For the molecule `Cc1cc(-c2cccc(C3=Nc4cc(N(C)C(C)C)c(C(F)(F)F)cc4NC(=O)C3)c2)on1` [Example 120, 7-(Isopropyl-methyl-amino)-4-[3-(3-methyl-isoxazol-5-yl)-phenyl]-8-trifluoromethyl-1,3-dihydro-benzo[b][1,4]diazepin-2-one], the melting point came to 199 °C.

The molecule `CCCN(C)c1cc2c(cc1Cl)NC(=O)CC(c1cccc(-n3nncc3CN(CC)CC)c1)=N2` [Example 123, 8-Chloro-4-[3-(5-diethylaminomethyl-[1,2,3]triazol-1-yl)-phenyl]-7-(methyl-propyl-amino)-1,3-dihydro-benzo[b][1,4]diazepin-2-one] yielded a melting point of 151 °C.

On to `CCCN(C)c1cc2c(cc1Cl)NC(=O)CC(c1cccc(-n3nncc3CN(C)C(C)C)c1)=N2` [Example 124, 8-Chloro-4-(3-{5-[(isopropyl-methyl-amino)-methyl]-[1,2,3]triazol-1-yl}-phenyl)-7-(methyl-propyl-amino)-1,3-dihydro-benzo[b][1,4]diazepin-2-one], for which the melting point was found to be 148 °C.

For the molecule `CC(C)N(C)c1cc2c(cc1Cl)NC(=O)CC(c1cccc(-n3nncc3CN3CCCC3)c1)=N2` [Example 125, 8-Chloro-7-(isopropyl-methyl-amino)-4-[3-(5-pyrrolidin-1-ylmethyl-[1,2,3]triazol-1-yl)-phenyl]-1,3-dihydro-benzo[b][1,4]diazepin-2-one], the melting point came out at 172 °C.

For the molecule `CC(C)CN(C)c1cc2c(cc1Cl)NC(=O)CC(c1cccc(-n3nncc3CN3CCCC3)c1)=N2` [Example 126, 8-Chloro-7-(isobutyl-methyl-amino)-4-[3-(5-pyrrolidin-1-ylmethyl-[1,2,3]triazol-1-yl)-phenyl]-1,3-dihydro-benzo[b][1,4]diazepin-2-one], the melting point is 190 °C.

On to `CC(C)CN(C)c1cc2c(cc1Cl)NC(=O)CC(c1cccc(-n3nncc3CN(C)C)c1)=N2` [Example 128, 8-Chloro-4-[3-(5-dimethylaminomethyl-[1,2,3]triazol-1-yl)-phenyl]-7-(isobutyl-methyl-amino)-1,3-dihydro-benzo[b][1,4]diazepin-2-one], for which the melting point was determined as 199 °C.

In turn, `CC(C)N(C)c1cc2c(cc1Cl)NC(=O)CC(c1cccc(-n3nncc3CN3CCC3)c1)=N2` [Example 129, 4-[3-(5-Azetidin-1-ylmethyl-[1,2,3]triazol-1-yl)-phenyl]-8-chloro-7-(isopropyl-methyl-amino)-1,3dihydro-benzo[b][1,4]diazepin-2-one] returned a melting point of 177 °C.

`CC(C)CN(C)c1cc2c(cc1Cl)NC(=O)CC(c1cccc(-n3nncc3CN3CCC3)c1)=N2` [Example 130, 4-[3-(5-Azetidin-1-ylmethyl-[1,2,3]triazol-1-yl)-phenyl]-8-chloro-7-(isobutyl-methyl-amino)-1,3-dihydro-benzo[b][1,4]diazepin-2-one] had a melting point of 191 °C.

`Cc1cc2c(cc1N(C)CC(C)C)N=C(c1cccc(-n3nncc3CO)c1)CC(=O)N2` [Example 132, 4-[3-(5-Hydroxymethyl-[1,2,3]triazol-1-yl)-phenyl]-7-(isobutyl-methyl-amino)-8-methyl-1,3-dihydro-benzo[b][1,4]diazepin-2-one] returned a melting point of 198 °C.

The molecule `Cc1cc(-c2cccc(C3=Nc4cc(N(C)CC(C)C)c(C)cc4NC(=O)C3)c2)on1` [Example 134, 7-(Isobutyl-methyl-amino)-8-methyl-4-[3-(3-methyl-isoxazol-5-yl)-phenyl]-1,3-dihydro-benzo[b][1,4]diazepin-2-one] had a melting point of 187 °C.

With `Cc1cc(-c2cccc(C3=Nc4cc(N5CCCC5)c(C)cc4NC(=O)C3)c2)on1` [Example 135, 8-Methyl-4-[3-(3-methyl-isoxazol-5-yl)-phenyl]-7-pyrrolidin-1-yl-1,3-dihydro-benzo[b][1,4]diazepin-2-one], the melting point is 211 °C.

`CC(C)CN(C)c1cc2c(cc1C(F)(F)F)NC(=O)CC(c1cccc(-n3nncc3CN(C)C)c1)=N2` [Example 136, 4-[3-(5-Dimethylaminomethyl-[1,2,3]triazol-1-yl)-phenyl]-7-(isobutyl-methyl-amino)-8-trifluoromethyl-1,3-dihydro-benzo[b][1,4]diazepin-2-one]: the melting point worked out at 182 °C.

`CC(C)CN(C)c1cc2c(cc1C#N)NC(=O)CC(c1cccc(-n3nncc3CN3CCCC3)c1)=N2` [Example 137, 8-(Isobutyl-methyl-amino)-4-oxo-2-[3-(5-pyrrolidin-1-ylmethyl-[1,2,3]triazol-1-yl)-phenyl]-4,5-dihydro-3H-benzo[b][1,4]diazepine-7-carbonitrile]: the melting point was 174 °C.

On to `Cc1cc2c(cc1N(C)CC(C)C)N=C(c1cccc(-n3nncc3CN3CCCC3)c1)CC(=O)N2` [Example 139, 7-(Isobutyl-methyl-amino)-8-methyl-4-[3-(5-pyrrolidin-1-ylmethyl-[1,2,3]triazol-1-yl)-phenyl]-1,3-dihydro-benzo[b][1,4]diazepin-2-one], for which the melting point is 177 °C.

With `CC(C)CN(C)c1cc2c(cc1C(F)(F)F)NC(=O)CC(c1cccc(-n3nncc3CN(C)C(C)C)c1)=N2` [Example 141, 7-(Isobutyl-methyl-amino)-4-(3-{5-[(isopropyl-methyl-amino)-methyl]-[1,2,3]triazol-1yl}-phenyl)-8-trifluoromethyl-1,3-dihydro-benzo[b][1,4]diazepin-2-one], the melting point came to 157 °C.

In turn, `CC(C)N(C)c1cc2c(cc1Cl)NC(=O)CC(c1cccc(-n3nncc3CNC3CCCC3)c1)=N2` [Example 142, 8-Chloro-4-[3-(5-cyclopentylaminomethyl-[1,2,3]triazol-1-yl)-phenyl]-7-(isopropyl-methyl-amino)-1,3-dihydro-benzo[b][1,4]diazepin-2-one] yielded a melting point of 174 °C.

The molecule `Cc1cc2c(cc1N(C)CC(C)C)N=C(c1cccc(-n3nncc3CNCC3CC3)c1)CC(=O)N2` [Example 143, 4-(3-{5-[(Cyclopropylmethyl-amino)-methyl]-[1,2,3]triazol-1-yl}-phenyl)-7-(isobutyl-methyl-amino)-8-methyl-1,3-dihydro-benzo[b][1,4]diazepin-2-one] displayed a melting point of 184 °C.

`CC(C)CN(C)c1cc2c(cc1Cl)NC(=O)CC(c1cccc(-n3nncc3CN3CCCCC3)c1)=N2` [Example 144, 8-Chloro-7-(isobutyl-methyl-amino)-4-[3-(5-piperidin-1-ylmethyl-[1,2,3]triazol-1-yl)-phenyl]-1,3-dihydro-benzo[b][1,4]diazepin-2-one] displayed a melting point of 169 °C.

As for `CC(C)NCc1cnnn1-c1cccc(C2=Nc3cc(N(C)C(C)C)c(Cl)cc3NC(=O)C2)c1` [Example 145, 8-Chloro-4-{3-[5-(isopropylamino-methyl)-[1,2,3]triazol-1-yl]-phenyl}-7-(isopropyl-methyl-amino)-1,3-dihydro-benzo[b][1,4]diazepin-2-one], the melting point is 208 °C.
